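Cultured in 96-well plates, cells were exposed to test compound for 48 hours across five concentrations. Here, GI50 denotes the concentration required for 50% inhibition of growth. Definition used: TGI = concentration required for complete inhibition of growth.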
Assays:
Assay in all cases: NCI anticancer screen, dose series, 48 h
[1] = tested on: IGROV1 ovarian
[2] = tested on: MALME-3M melanoma
[3] = tested on: OVCAR-4 ovarian
[4] = tested on: EKVX NSCLC
[5] = tested on: HOP-92 NSCLC
[6] = tested on: RPMI-8226 leukemia
[7] = tested on: TK-10 renal
[8] = tested on: SF-539 CNS

Compound	GI50 [1]	TGI [1]	GI50 [2]	TGI [2]	GI50 [3]	TGI [3]	GI50 [4]	TGI [4]	GI50 [5]	TGI [5]	GI50 [6]	TGI [6]	GI50 [7]	TGI [7]	GI50 [8]	TGI [8]
CC(C)(C)OC(=O)CN1CCc2c(sc3ncnc(N/N=C/c4cccc5ccccc45)c23)C1	1.87 µM	7.4 µM	3.51 µM	8.69 µM	2.58 µM	14.1 µM	2.22 µM	> 33.3 µM	1.74 µM	16.7 µM	1.05 µM	4.22 µM	5.34 µM	> 33.3 µM	1.73 µM	7.02 µM
O=[N+]([O-])c1ccc(/C=C(/c2ccc([N+](=O)[O-])o2)S(=O)(=O)c2ccccc2)o1	–	30.6 µM	–	7.45 µM	–	15.5 µM	–	22.8 µM	–	27.8 µM	–	0.483 µM	–	15.2 µM	–	37.7 µM
Cn1c2ccccc2c(=O)c2c([N+](=O)[O-])ccc(NCCN)c21	–	27.2 µM	–	28.9 µM	–	24.9 µM	–	31 µM	–	20.2 µM	–	–	–	28.5 µM	–	20.8 µM
c1cc[c]([Sn]([S]c2cccc3cccnc23)([S]c2cccc3cccnc23)[c]2ccccc2)cc1	0.267 µM	0.789 µM	0.168 µM	0.547 µM	0.163 µM	0.336 µM	0.22 µM	0.881 µM	0.158 µM	0.493 µM	0.158 µM	0.465 µM	0.206 µM	0.417 µM	0.295 µM	0.893 µM
COc1cc(NCc2ccccc2O)c2ncccc2c1	13.7 µM	56.2 µM	14 µM	44.4 µM	13.7 µM	> 100 µM	19 µM	80.8 µM	3.83 µM	30.3 µM	11.8 µM	79.5 µM	26.5 µM	> 100 µM	21 µM	> 100 µM
COc1cc2cc(Oc3ccc(NC(=O)Nc4ccc(Cl)c(C(F)(F)F)c4)cc3)c(C)nc2cc1OC	2.34 µM	9.83 µM	1.33 µM	5.71 µM	1.37 µM	6.1 µM	1.01 µM	3.75 µM	0.682 µM	2.05 µM	0.635 µM	1.65 µM	1.32 µM	6.19 µM	1.96 µM	8.39 µM
C(=C\c1nccc2c1[nH]c1ccccc12)/c1ccccc1	0.664 µM	23.6 µM	4.5 µM	27.7 µM	3.18 µM	> 100 µM	1.72 µM	59.6 µM	2.19 µM	19.8 µM	1.07 µM	3.92 µM	6.58 µM	25.5 µM	1.98 µM	4.51 µM
Cc1cccc2c1O/C(=C\c1ccc([N+](=O)[O-])o1)C2=O	1.54 µM	5.39 µM	0.971 µM	2.66 µM	2.06 µM	8.06 µM	–	–	1.16 µM	2.95 µM	0.32 µM	1.8 µM	2.3 µM	5.61 µM	1.53 µM	3.22 µM
O=C(CNc1ncco1)Nc1ccc(S(=O)(=O)c2ccc(NC(=O)CNc3ncco3)cc2)cc1	1.76 µM	5.32 µM	2.12 µM	4.56 µM	–	–	2.23 µM	9 µM	3.37 µM	13 µM	1.11 µM	3.01 µM	11.7 µM	25 µM	1.7 µM	3.9 µM
COC(=O)OCc1ccc2c(c1)C(=O)c1c-2n(CCCBr)c(=O)c2cc([N+](=O)[O-])ccc12	54.3 µM	> 100 µM	> 100 µM	> 100 µM	> 100 µM	> 100 µM	74.3 µM	> 100 µM	28.9 µM	77.1 µM	–	–	19.1 µM	61.3 µM	56 µM	> 100 µM
Cc1cc(C)n(C(=O)c2nn(-c3ccc(Cl)cc3)cc2O)n1	3.16 µM	73.3 µM	4.59 µM	57.6 µM	9.19 µM	> 100 µM	4.87 µM	> 100 µM	4.52 µM	> 100 µM	3.34 µM	17 µM	4.71 µM	> 100 µM	3.05 µM	35.1 µM
CS(=O)(=O)CCn1c(=O)c(Oc2ccc(F)cc2F)cc2cnc(NC3CCOCC3)nc21	> 25 µM	> 25 µM	> 25 µM	> 25 µM	> 25 µM	> 25 µM	–	–	2.64 µM	> 25 µM	> 25 µM	> 25 µM	> 25 µM	> 25 µM	> 25 µM	> 25 µM
C[C@@H](Oc1ccc2[nH]nc(/C=C/c3cnn(CCO)c3)c2c1)c1c(Cl)cncc1Cl	0.135 µM	5.04 µM	1.86 µM	4.68 µM	1.89 µM	8.78 µM	–	–	0.0168 µM	0.0987 µM	1.54 µM	4.41 µM	0.251 µM	1.68 µM	0.035 µM	0.268 µM
CN1CCN(c2ccc(NC3=C(Cl)C(=O)c4ncccc4C3=O)cc2C#N)CC1	1.34 µM	2.82 µM	1.47 µM	2.81 µM	1.09 µM	2.36 µM	2.78 µM	8.72 µM	1.82 µM	3.45 µM	–	–	2.09 µM	4.24 µM	4.44 µM	15 µM
O=C1c2ccn(CCCCN3CCCCC3)c2C(=O)c2c1c(O)c1ccccc1c2O	11.1 µM	> 100 µM	7.58 µM	20.4 µM	9.48 µM	> 61.1 µM	15.2 µM	36.1 µM	3.68 µM	22.9 µM	2.74 µM	9.29 µM	13.6 µM	27.9 µM	6 µM	42.1 µM
CNC(=O)OC1C(O[C@H]2C[C@H]3[C@@H]4CC=C5C[C@@H](O)CC[C@]5(C)[C@H]4CC[C@]3(C)[C@H]2[C@H](C)C(=O)CCC(C)C)OCC(O)C1OC1OCC(O)C(O)C1OC(=O)c1ccc(OC)cc1 (some centres undefined)	0.0224 µM	3.95 µM	0.0517 µM	2.33 µM	0.291 µM	7.36 µM	0.0396 µM	3.47 µM	0.0209 µM	3.1 µM	< 0.00275 µM	0.0112 µM	0.793 µM	7.69 µM	< 0.00275 µM	0.0185 µM
Cc1ccc(C2C3=C(N=c4s/c(=C/c5ccc(Br)cc5)c(=O)n42)c2ccc4ccccc4c2OCC3)cc1 (centres undefined)	> 100 µM	> 100 µM	54.9 µM	> 100 µM	> 100 µM	> 100 µM	> 100 µM	> 100 µM	> 100 µM	> 100 µM	> 100 µM	> 100 µM	> 100 µM	> 100 µM	> 100 µM	> 100 µM
CCOC(=O)N[C@H]1CCc2c(Br)c(OC)c(OC)c(OC)c2-c2ccc(SC)c(=O)cc21	0.0189 µM	16.2 µM	< 0.01 µM	28.4 µM	0.0608 µM	> 53.5 µM	< 0.0112 µM	> 83.2 µM	< 0.0137 µM	6.19 µM	< 0.01 µM	> 33.7 µM	3.8 µM	> 60.4 µM	< 0.01 µM	< 0.0106 µM
C[C@]12C3CC[C@@]4(CO)C[C@]3(CCC1[C@](C)(C(=O)O)CC[C@@H]2O)CC4=O (some centres undefined)	> 100 µM	> 100 µM	> 100 µM	> 100 µM	> 100 µM	> 100 µM	> 100 µM	> 100 µM	> 100 µM	> 100 µM	> 100 µM	> 100 µM	> 100 µM	> 100 µM	> 100 µM	> 100 µM
COc1ccc(-c2nnc(N3CCN(C(=O)CN4CCN(c5ccc(Cl)cc5)CC4)CC3)nc2-c2ccc(OC)cc2)cc1	29.4 µM	> 100 µM	21.5 µM	> 100 µM	> 100 µM	> 100 µM	> 100 µM	> 100 µM	16.2 µM	39.1 µM	5.19 µM	> 100 µM	58.5 µM	> 100 µM	15.1 µM	74.8 µM
COc1cc(C2=NN(c3ccc(S(N)(=O)=O)cc3)C(c3ccc(Cl)cc3)C2)cc(OC)c1OC (centres undefined)	8.09 µM	> 100 µM	11.4 µM	> 100 µM	3.16 µM	9.46 µM	–	–	2.02 µM	14.5 µM	3.7 µM	> 100 µM	3.27 µM	> 100 µM	5.12 µM	> 100 µM
Nc1ccc2ccc(NS(=O)(=O)N3CCCCC3)cc2c1	0.765 µM	> 100 µM	0.489 µM	> 100 µM	1.82 µM	> 100 µM	2.05 µM	> 100 µM	0.532 µM	73.1 µM	0.507 µM	> 49.6 µM	3.15 µM	> 100 µM	–	–

From PubChem BioAssay (NCI)
